Activity calls are given as the source filed them.
Assays:
[1] = target: Matrix metalloproteinase-14 (Homo sapiens, UniProt P50281); assay: Dose Response confirmation of uHTS hits for a small molecule inhibitors of MT1-MMP activation in a fluorescence assay set 1.; format: functional
[2] = target: T1, Corticotropin-releasing factor receptor 2/Corticotropin-releasing factor-binding protein (Homo sapiens, UniProt P24387+Q13324); assay: Dose Response confirmation of uHTS hits for small molecule antagonists of the CRF-binding protein and CRF-R2 receptor complex.; format: functional; details: read-out: IC50_Mean
T1 sequence (Q13324 whole entry): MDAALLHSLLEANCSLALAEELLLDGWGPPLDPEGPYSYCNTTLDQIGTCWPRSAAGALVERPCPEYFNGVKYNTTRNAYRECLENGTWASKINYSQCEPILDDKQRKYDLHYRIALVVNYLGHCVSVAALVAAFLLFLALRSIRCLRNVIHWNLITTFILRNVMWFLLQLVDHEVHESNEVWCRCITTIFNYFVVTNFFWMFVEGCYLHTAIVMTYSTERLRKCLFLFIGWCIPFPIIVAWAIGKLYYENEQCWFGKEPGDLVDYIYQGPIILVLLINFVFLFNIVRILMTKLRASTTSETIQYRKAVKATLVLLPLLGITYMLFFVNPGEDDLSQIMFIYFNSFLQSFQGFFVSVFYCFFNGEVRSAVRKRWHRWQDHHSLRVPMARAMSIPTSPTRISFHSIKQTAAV
T1 sequence (P24387 whole entry): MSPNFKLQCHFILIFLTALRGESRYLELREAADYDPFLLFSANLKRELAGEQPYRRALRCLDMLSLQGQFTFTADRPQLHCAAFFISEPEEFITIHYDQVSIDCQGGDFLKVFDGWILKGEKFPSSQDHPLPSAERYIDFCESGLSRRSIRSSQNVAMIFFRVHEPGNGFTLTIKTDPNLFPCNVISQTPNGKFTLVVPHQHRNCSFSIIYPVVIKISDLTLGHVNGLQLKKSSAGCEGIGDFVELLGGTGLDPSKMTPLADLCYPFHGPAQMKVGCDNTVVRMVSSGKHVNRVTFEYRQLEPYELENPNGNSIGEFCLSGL

[3] = target: T1, Corticotropin-releasing factor receptor 2/Corticotropin-releasing factor-binding protein; assay: activators of CRF receptor 2 with binding protein – uHTS hits, confirmation (AID 602473); format: functional; details: read-out: EC50_Mean
Aminopeptidase N = target: T2, Aminopeptidase N (Plasmodium falciparum FcB1/Columbia, UniProt O96935); assay: malaria alanyl aminopeptidase activity blockers – biochemical, fluorogenic H-Leu-NHMec substrate, 1536-well (AID 1445); parameters: species or system Plasmodium falciparum 3D7, 3D7
T2 sequence (O96935 whole entry): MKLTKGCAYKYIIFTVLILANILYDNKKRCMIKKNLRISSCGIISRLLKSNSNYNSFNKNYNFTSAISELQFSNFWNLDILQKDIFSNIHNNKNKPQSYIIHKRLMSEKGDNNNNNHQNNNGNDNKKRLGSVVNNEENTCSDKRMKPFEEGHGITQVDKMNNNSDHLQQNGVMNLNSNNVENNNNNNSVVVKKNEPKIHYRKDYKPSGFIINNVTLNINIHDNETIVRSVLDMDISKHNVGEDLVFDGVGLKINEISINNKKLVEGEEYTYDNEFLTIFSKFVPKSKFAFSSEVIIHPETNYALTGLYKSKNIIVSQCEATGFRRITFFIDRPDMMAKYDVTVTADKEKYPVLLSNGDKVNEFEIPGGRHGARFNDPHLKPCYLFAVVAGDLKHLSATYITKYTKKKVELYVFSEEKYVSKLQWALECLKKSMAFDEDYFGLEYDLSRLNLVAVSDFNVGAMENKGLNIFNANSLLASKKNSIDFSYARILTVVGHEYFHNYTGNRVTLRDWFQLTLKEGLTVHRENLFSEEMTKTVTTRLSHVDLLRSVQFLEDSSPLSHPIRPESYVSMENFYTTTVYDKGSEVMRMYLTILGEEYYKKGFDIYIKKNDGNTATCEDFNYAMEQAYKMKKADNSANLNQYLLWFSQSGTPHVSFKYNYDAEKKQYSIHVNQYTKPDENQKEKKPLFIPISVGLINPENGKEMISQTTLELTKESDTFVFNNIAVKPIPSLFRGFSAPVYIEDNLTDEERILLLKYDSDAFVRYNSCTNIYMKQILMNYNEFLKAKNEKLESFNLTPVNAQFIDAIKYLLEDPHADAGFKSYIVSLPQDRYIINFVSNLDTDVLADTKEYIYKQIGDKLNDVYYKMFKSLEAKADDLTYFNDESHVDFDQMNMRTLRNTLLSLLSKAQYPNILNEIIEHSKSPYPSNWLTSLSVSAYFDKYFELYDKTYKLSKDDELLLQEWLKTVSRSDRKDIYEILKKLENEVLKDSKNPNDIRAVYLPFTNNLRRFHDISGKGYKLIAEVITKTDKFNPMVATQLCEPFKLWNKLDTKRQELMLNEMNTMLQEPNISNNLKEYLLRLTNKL

[4] = blockers of CRF-binding protein–CRF-R2 complex – cell-based, uHTS hits, 384-well, dose response (AID 651639); format: functional, Homo sapiens; details: read-out: IC50_Mean
[5] = HEK-293T viability loss after treatment – luminescence, T-cell screen hits, cytotoxicity control for TCR NF-kB inhibitor project, dose response (AID 489026); format: functional, cell-based;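 also: cells exposed to compound about 14 hours before the viability readout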
INS1 = assay: INS-1E survival protection against cytokine death – cell-based, luminescence, retest, dose response (AID 449756); format: functional; details: Rattus norvegicus;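 also: cell death triggered by IL-1 beta plus TNF-alpha plus IFN-gamma mixture; protective hits raise ATP signal compared with cytokine alone wells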
[6] = decrease of insulin promoter-GFP reporter – imaging, high-content screening, mouse beta cells (AID 1628); format: functional; details: MIN6
[7] = non-specific 3'UTR reporter inhibition in Clone20-Shn3RL – cell-based, Renilla luciferase, cherry-picked, counter-screen for Shn3 inhibitor project, dose response (AID 624133); format: functional
[8] = loss of viability in HepG2 cells – cell-based, CellTiter-Glo, cherry-picked, cytotoxicity control for Shn3 inhibitor project, dose response (AID 624134); format: functional
cells = format: functional, cell-based; details: HEK-CNG
[9] = MIN6 cell viability loss – mouse insulinoma, cytotoxicity control, dose response (AID 2122); format: functional;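 also: confirmatory high-throughput counterscreen run to flag cytotoxic compounds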
[10] = reduction of Shn3 3'UTR-driven luciferase in osteoblasts – cell-based, Clone20 osteoblasts, firefly luciferase, cherry-picked, dose response (AID 624132); format: functional;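 also: firefly luciferase luminescence from reporter carrying the Shn3 3'UTR in osteoblasts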
Galanin receptor type 3 = Galanin receptor type 3 (Homo sapiens, UniProt O60755); assay: Fluorescence-based cell-based primary high throughput dose response assay to identify antagonists of the Galanin Receptor 3 (GalR3).; format: functional
Galanin receptor type 3, sequence (O60755 whole entry): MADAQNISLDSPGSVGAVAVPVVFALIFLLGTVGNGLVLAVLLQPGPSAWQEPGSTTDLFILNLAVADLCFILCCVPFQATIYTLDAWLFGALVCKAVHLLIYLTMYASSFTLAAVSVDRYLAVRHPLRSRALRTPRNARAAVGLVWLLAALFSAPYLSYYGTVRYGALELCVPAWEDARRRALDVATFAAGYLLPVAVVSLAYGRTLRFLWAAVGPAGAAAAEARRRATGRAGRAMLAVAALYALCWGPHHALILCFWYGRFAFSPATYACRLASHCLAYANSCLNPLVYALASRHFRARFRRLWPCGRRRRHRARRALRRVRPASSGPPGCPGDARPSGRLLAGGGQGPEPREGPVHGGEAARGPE

[11] = general mammalian cell viability loss – activator set, cherry-pick, cytotoxicity control for miR-122 modulator project, dose response (AID 720690); format: functional, cell-based;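 also: HEK293T human cells scored for general mammalian cytotoxicity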
[12] = general mammalian cell viability loss – inhibitor set, cherry-pick, set 2, cytotoxicity control for miR-122 modulator project, dose response (AID 720697); format: functional, cell-based
[13] = target: T3, DNA repair protein RAD52 homolog (Homo sapiens, UniProt P43351); format: functional, biochemical
T3 sequence (P43351 whole entry): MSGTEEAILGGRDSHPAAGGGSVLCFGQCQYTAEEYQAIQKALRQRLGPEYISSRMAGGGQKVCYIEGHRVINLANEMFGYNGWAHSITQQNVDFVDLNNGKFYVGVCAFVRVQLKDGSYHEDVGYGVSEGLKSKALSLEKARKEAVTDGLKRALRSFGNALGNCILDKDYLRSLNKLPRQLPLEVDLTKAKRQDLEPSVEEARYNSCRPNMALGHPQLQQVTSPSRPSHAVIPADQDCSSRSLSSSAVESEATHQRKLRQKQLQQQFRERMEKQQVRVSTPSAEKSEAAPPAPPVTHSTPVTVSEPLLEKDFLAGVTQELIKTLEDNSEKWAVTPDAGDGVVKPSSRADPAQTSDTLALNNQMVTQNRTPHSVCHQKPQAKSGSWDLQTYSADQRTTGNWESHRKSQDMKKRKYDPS

Paired box protein Pax-8 = Paired box protein Pax-8 (Homo sapiens, UniProt Q06710); assay: PAX8 transcriptional activity inhibition in RMG-I – RMG-I cells, luciferase, cherry-pick, dose response (AID 687027); format: functional, cell-based;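 also: luciferase reporter driven by Pax8 target thyroperoxidase promoter measured by SteadyGlo luminescence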
Paired box protein Pax-8, sequence (Q06710 whole entry): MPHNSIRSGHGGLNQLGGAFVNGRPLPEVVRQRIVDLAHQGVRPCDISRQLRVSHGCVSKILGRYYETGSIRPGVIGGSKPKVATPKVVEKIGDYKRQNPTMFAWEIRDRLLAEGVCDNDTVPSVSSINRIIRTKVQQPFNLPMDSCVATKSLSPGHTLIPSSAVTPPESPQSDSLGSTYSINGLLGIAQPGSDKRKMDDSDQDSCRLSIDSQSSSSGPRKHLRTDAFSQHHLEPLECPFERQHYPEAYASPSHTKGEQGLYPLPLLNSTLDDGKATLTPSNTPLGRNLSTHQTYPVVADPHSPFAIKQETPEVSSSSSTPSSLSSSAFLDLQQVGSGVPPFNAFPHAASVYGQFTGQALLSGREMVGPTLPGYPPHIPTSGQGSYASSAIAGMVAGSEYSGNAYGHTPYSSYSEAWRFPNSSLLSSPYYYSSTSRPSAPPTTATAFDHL

[14] = PAX5 cellular inhibition readout – cell-based, plate reader, dry powder samples, selectivity assay for PAX8 inhibitor project, dose response (AID 743047); format: functional;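 also: HEK293 cells carrying a Pax5 driven CD19 promoter luciferase reporter; potency of inhibitors that lower reporter luminescence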
[15] = PAX8-dependent cell viability loss – plate reader, dry powder, dose response (AID 743049); format: functional, cell-based
[16] = OV-90 cell viability loss – plate reader, dry powder, SA8, PAX8 inhibitor project, dose response (AID 743149); format: functional, cell-based
[17] = COV434 cell viability loss – plate reader, dry powder, SA7, cytotoxicity control for PAX8 inhibitor project, dose response (AID 743145); format: functional, cell-based
[18] = OVCAR-3 cell viability loss – plate reader, dry powder samples, PAX8 inhibitor project, dose response (AID 743044); format: functional, cell-based

CNc1ccc(N=Nc2cc[n+]([O-])cc2C)cc1C
IC50 [1]: > 80 µM (inactive)

Cc1ccc(S(=O)(=O)NC2=NC(=O)/C(=C/c3ccccc3)S2)cc1
IC50 [2]: 18.4 µM (active) | EC50 [3]: > 53 µM (inactive) | IC50 (Aminopeptidase N): 69.2 µM (active) | IC50 [4]: > 20 µM (inactive)

Cc1cc(C)nc(SCC(=O)Nc2ccnc3ccccc23)n1
IC50 [5]: > 80 µM (inactive) | AC50 (INS1): 4.76 µM (active) | IC50 [6]: 0.695 µM (active) | AC50 [7]: < 0.26 µM (active) | AC50 [8]: > 70 µM (inactive) | EC50 (cells): > 29.9 µM (inactive) | IC50 [9]: 0.398 µM (active) | AC50 [10]: 0.462 µM (active) | IC50 (Galanin receptor type 3): 0.874 µM (active)

COc1ccc(-c2c(-c3ccccc3)c(C(=O)C(=O)NCCCN(C)C)n3ccc4cc(OC)c(OC)cc4c23)cc1OC
AC50 [11]: 17.2 µM (active) | AC50 [12]: 4.39 µM (active) | AC50 [13]: 3.15 µM (active)

CC(C)c1cc(C(=O)OCC(=O)N2CCN(C(=O)c3ccco3)CC2)c(O)c(C(C)C)c1
AC50 (Paired box protein Pax-8): 1.58 µM (active) | AC50 [14]: 45.8 µM (active) | AC50 [15]: 10.8 µM (active) | AC50 [16]: 81.3 µM (active) | AC50 [17]: 13.7 µM (active) | AC50 [18]: 49.9 µM (active)
